From patent US8324279B2, “Compositions and methods for inhibiting an isoform of human manganese superoxide dismutase” (MitoTek, LLC, priority 2003, dated 2012)
“Also recorded” adds a separate entry of the source.

Experiments:
altMnSODreport = assay: Testing of drugs for toxicity with the reporter gene system; assay type: cell-based; conditions: cells comprising the reporter gene system
Experimental: Drugs are tested alone or in combination in cancerous or diseased cells and in healthy cells. The compounds are added to cells comprising the reporter gene system. The induction of the reporter is characterized in the absence and the presence of the drug(s).
Breast cancer cell line, MDA-MB-435, Her-2/neu over-expressing (ATCC), fibroblast cells lines NIH3T3 and B104, which are NIH3T3 cells transfected with the rat ErbB2/Her2 oncogene, and normal primary cells (Clonetics; rat cardiomyocytes, donated by Kathryn Maschhoff, MD PhD, Neonatology, University of Pennsylvania) are treated with doxorubicin alone and in combination with the rat ErbB2/Her2 17.6.4 monoclonal antibody, which downregulates the human and rat Her2 receptor (Zhang et al., 1999)(Oncogene), and Herceptin™ (Genentech). It is also determined if the Her2 mAbs induces isoMnSOD expression in untransfected cells and cells transfected with altMnSODreport. A dose-response curve is established, using western immunoblot analysis of the isoMnSOD protein and the expression of the reporter construct. A similar analysis is performed for doxorubicin treatment of cells. Both treatments are analyzed for their effects on mtDNA stability by Southern hybridization analysis, induction of lipid peroxidation by immunodetection of HNE-modified proteins, and induction of apoptosis by activation of caspases 9 and 3.

[1] = system: adult cardiomyocyte explants; assay: Doxorubicin induction of isoMnSOD expression in adult heart explants (Western Blot); assay type: cell-based, rat; conditions: 3 days, 0.1 nM to 1.0 μM Doxorubicin, AdvDMEM 2% FBS, FIG. 3
Excerpt: Adult cardiomyocytes were isolated and purified following the combination of perfusion techniques (Borg et al. Recognition of extracellular matrix components by neonatal and adult cardiac myocytes. Dev Biol. 1984; 104:86-96) and an attachment procedure (Bugaisky L B, Zak R. Differentiation of adult rat cardiac myocytes in cell culture. Circ Res. 1989; 64:493-500) as described by Sil et al. (Sil et al. Myotrophin in human cardiomyopathic heart. Circ Res. 1993; 73:98-108). Briefly, after rats (5 weeks old) were killed by decapitation, the hearts were aseptically excised and residual blood was removed. The heart was perfused in Joklik's medium (containing Joklik's minimal essential medium, 25 mmol/L glutamic acid, 30 mmol/L taurine, and 1 mmol/L adenosine) without recirculation on a modified Langendorff apparatus for approximately 10 minutes at 37° C. The perfusion was then continued for 30 minutes at the same temperature, with recirculation in Joklik's medium containing collagenase type II (100 U/mL). After perfusion, the ventricles were cut into small pieces and tritulated in 0.05% Trypsin/EDTA for 10 min. Cardiac explants were cultured overnight on laminin-coated (20 μg per well) 35-mm six-well plates in medium 199 containing 5% FBS, 5 mM creatine, 2 mM L-carnitine, and 5 mM taurine. […]

isoMnSOD [2] = assay: Peroxidative assay of native mitochondrial extracts from compound-treated pancreatic explants (ROS-activity blot); assay type: cell-based, pig; conditions: pancreatic explant cultured 1 hr at 37° C. with equal volume of 2 μM compound; FIG. 1
Experimental: Recombinant and mammalian detergent extracts of native mitochondrial proteins were separated in a 7% PAGE gel without SDS containing 375 mM Tris pH 8.2 at 100 volts for 1.5 hr. After electrotransfer of proteins to nitrocellulose using transfer buffer without SDS, peroxidative activity was measured directly upon the filter by their incubation with 0.5 ml of the Femtomole luminol solution (Pierce) containing 1 mM H2O2 and exposing to x-ray film or other means of detecting chemiluminescence.
F10 medium was used throughout the procedure. Pancreas (8 grams) from a 3 kilo pig was minced, washed twice, and 1 g of tissue was resuspended in 5 ml of FIO medium. […] Explants were stored frozen at −70° C. Tissue was homogenized in Buffer A at 4° C. and mitochondria was isolated by differential centrifugation and stored frozen at −70° C. Peroxidative assay of native mitochondrial extracts analyzed by the ROS-activity blot.

isoMnSOD [3] = assay: Pro-oxidant activity of isoMnSOD, at least one of the assays provided in the Examples; conditions: according to at least one of the assays provided in the Examples
Experimental: (§1) Each test compound was prepared by mixing 5 μL of a 1 mM test compound stock solution in ethanol with 5 μL of 0.1 M KOH, followed by the addition of 5 ml of TBS for a final concentration of 1 μM test compound. Equal amounts of native protein extracts from pancreatic mitochondria (obtained according to the protocol of Example 5) were loaded in separate wells and resolved in a 7% PAGE gel without SDS, electrotransferred to PVDF and divided into strips. Each PVDF strip was incubated with 1 μM of test compound in TBS for 30 minutes, washed twice in TBS for 20 minutes, and the peroxidative activity of isoMnSOD was measured by incubation of each strip with 1 mM H2O2 in 0.4 ml of the luminol solution contained within the Femtomole chemiluminescence assay kit (Pierce) and exposed to x-ray film (FIG. 4).
Peroxidative assay of native mitochondrial extracts analyzed by the ROS-activity blot.

isoMnSOD [4] = molecular target: T1, isoMnSOD (Homo sapiens, UniProt P04179); assay: Detection of inhibitors bound to isoMnSOD (immunoprecipitation/western blot); conditions: anti-dopamine or anti-serotonin antibody; FIG. 2A and 2B
T1 sequence (P04179 25-183 isoform P04179-2 limits assumed): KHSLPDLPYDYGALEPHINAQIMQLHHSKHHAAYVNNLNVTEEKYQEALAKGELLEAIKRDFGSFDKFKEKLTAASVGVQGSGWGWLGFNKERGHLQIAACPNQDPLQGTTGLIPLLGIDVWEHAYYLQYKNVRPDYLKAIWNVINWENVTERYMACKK
Experimental: Covalent modification of the MnSOD-Exon3-deleted isoform was measured by a combined immuneprecipitation/western blot analysis. Immunoblots for detecting AA-DA, EPA-DA, DHA-DA, C18:4(ω-3)-DA adducts were performed using anti-dopamine rabbit polyclonal (Chemicon) and anti-serotonin goat polyclonal antibodies (ImmunoStar), respectively. After immunoprecipitating using an antibody against the inhibitor, isoMnSOD was detected as described above.

isoMnSOD [5] = assay: Drug inhibition method: peroxidative activity of isoMnSOD on PVDF strips (ROS-activity blot); conditions: 1 μM test compound for 30 minutes; 1 mM H2O2, luminol chemiluminescence; FIG. 4
Experimental: as §1
All procedures were carried out at 4° C.

| Compound | expression of altMnSOD report (altMnSODreport) | isoMnSOD expression [1] | mitochondrial peroxidase activity (isoMnSOD [2]) | pro-oxidant activity of isoMnSOD (isoMnSOD [3]) | binding to isoMnSOD (covalent modification of the MnSOD-Exon3-deleted isoform) (isoMnSOD [4]) | peroxidative activity of isoMnSOD (isoMnSOD [5]) |
| --- | --- | --- | --- | --- | --- | --- |
| COc1cccc2c1C(=O)c1c(O)c3c(c(O)c1C2=O)C[C@@](O)(C(=O)CO)C[C@@H]3O[C@H]1C[C@H](N)[C@H](O)[C@H](C)O1 [Doxorubicin] | causes an increase in expression of altMnSOD report | induced isoMnSOD expression; also recorded: induces the expression of isoMnSOD |  |  |  |  |
| CCCCC/C=C\C/C=C\C/C=C\C/C=C\CCCC(=O)NCCc1c[nH]c2ccc(O)cc12 [arachidonoyl-serotonin, arachidonoyl serotonin] |  |  | inhibited the mitochondiral peroxidase activity | found to inhibit pro-oxidant activity of isoMnSOD | able to bind to isoMnSOD |  |
| CC/C=C\C/C=C\C/C=C\C/C=C\C/C=C\C/C=C\CCC(=O)NCCc1ccc(O)c(O)c1 [docosahexaenoyl (DHA)-dopamine, docosahexaenoyl dopamine] |  |  | inhibited the mitochondiral peroxidase activity | found to inhibit pro-oxidant activity of isoMnSOD | able to bind to isoMnSOD | inhibit peroxidative activity more significantly than the other compounds |
| CC/C=C\C/C=C\C/C=C\C/C=C\C/C=C\CCCC(=O)NCCc1ccc(O)c(O)c1 [eicosapentaenoyl (EPA)-dopamine, eicosapentaenoyl dopamine] |  |  | did not inhibit peroxidase activity to the same effect | found to inhibit pro-oxidant activity of isoMnSOD |  | inhibit peroxidative activity more significantly than the other compounds |
| C18:4(ω-3)-dopamine |  |  | inhibited the mitochondiral peroxidase activity | found to inhibit pro-oxidant activity of isoMnSOD | able to bind to isoMnSOD | inhibit peroxidative activity more significantly than the other compounds |
